Measurements: patent publication US4018895A, “Aryloxyphenylpropylamines in treating depression” (Eli Lilly and Company, priority 1975, dated 1977)
Counter-ions that a name gives are not always drawn. Like-named read-outs stand apart in the source and are kept apart here.

What was measured:
brain serotonin = experiment: Prevention of brain serotonin depletion caused by 4-chloroamphetamine; assay type: in vivo; conditions: rats injected with 4-chloroamphetamine; drug 15 mg./kg. intraperitoneally; 4 hours later
Method: Following this injection, the protecting drug was injected at a dose of 15 mg./kg. of rat-weight intraperitoneally and determinations of brain serotonin levels were carried out 4 hours later.

[1] = system: hypothermia induced by the injection of apomorphine; experiment: Apomorphine hypothermia antagonism test; assay type: in vivo, mice; conditions: for Reduction of apomorphine hypothermia: 10 mg./kg. dose, measured 60 minutes after injection of the apomorphine
Method: The apomorphine hypothermia antagonism test is carried out as follows: mice are injected with a dose of apomorphine known to reduce body temperature approximately 4° C. […] The degree of antagonism is expressed as a percent reduction (as compared with controls) of the temperature decrease produced by the injection of the apomorphine. The reserpine hypothermia reversal test is carried out as follows: groups of mice are injected with reserpine and 16.5 hours later are injected intraperitoneally with graded doses of the drug, a different dose level being given to each group of mice. Temperatures are measured at 1 hour after injection of the drug under test and again the effectiveness of the drug is expressed as a percentage decrease in the hypothermia induced by the injection of reserpine as compared with the control group. In the tablets which follow, Table 4 gives the results in the apomorphine antagonism and reserpine reversal hypothermia tests for the secondary amines of this invention. In the table, the first column gives the substituent attached to the oxygen atom at the 3 position of the propylamine chain; columns 2 to 4 the percent antagonism against apomorphine hypothermia at dose levels of 0.3, 1 and 3 mg./kg. and columns 5-7 the percent reversal of reserpine hypothermia at the same dose levels.

[2] = system: hypothermia induced by the injection of reserpine; experiment: Reserpine hypothermia reversal test; assay type: in vivo, mice; conditions: for inhibition in vivo at 1 mg/kg / inhibition in vivo at 3 mg/kg / inhibition in vivo at 10 mg/kg / inhibition in vivo at 0.3 mg/kg: Mus musculus, ip, 1 h, Post-60 min., mice, read-out: Percent Antagonism Reserpine; for inhibition in vivo at 1 mg/kg: 1 mg./kg. intraperitoneally; for inhibition in vivo at 3 mg/kg: 3 mg./kg. intraperitoneally; for inhibition in vivo at 10 mg/kg: 10 mg./kg. intraperitoneally; for inhibition in vivo at 0.3 mg/kg: .3 mg./kg. intraperitoneally
Method: The apomorphine hypothermia antagonism test is carried out as follows: mice are injected with a dose of apomorphine known to reduce body temperature approximately 4° C. The compound under test is injected 1/2 hour before the injection of the apomorphine and the temperatures measured 1/2 hour after injection. The degree of antagonism is expressed as a percent reduction (as compared with controls) of the temperature decrease produced by the injection of the apomorphine. The reserpine hypothermia reversal test is carried out as follows: groups of mice are injected with reserpine and 16.5 hours later are injected intraperitoneally with graded doses of the drug, a different dose level being given to each group of mice. Temperatures are measured at 1 hour after injection of the drug under test and again the effectiveness of the drug is expressed as a percentage decrease in the hypothermia induced by the injection of reserpine as compared with the control group. In the tablets which follow, Table 4 gives the results in the apomorphine antagonism and reserpine reversal hypothermia tests for the secondary amines of this invention. In the table, the first column gives the substituent attached to the oxygen atom at the 3 position of the propylamine chain; columns 2 to 4 the percent antagonism against apomorphine hypothermia at dose levels of 0.3, 1 and 3 mg./kg. and columns 5-7 the percent reversal of reserpine hypothermia at the same dose levels.

[3] = system: QRS complex of the electrocardiogram; experiment: Electrocardiogram in anesthetized cats after intravenous injection; conditions: in words
[4] = system: norepinephrine uptake by synaptosomes from rat brain; experiment: In vitro blockade of norepinephrine uptake by synaptosomes from rat brain; assay type: biochemical; conditions: norepinephrine 0.48 μM
Description: (§1) This blockade is shown both in vitro with radioactive labelled compounds to determine the amount of monoamine uptake by synaptosomes from rat brain, and in vivo by a variety of methods. Among the physiologically active monoamines whose uptake is blocked by the compounds of this invention are included serotonin, norepinephrine and dopamine (3,4-dihydroxyphenylethylamine). […] Tables 1 and 2 which follow set forth the results of some of the in vitro determinations of the blockage of monoamine uptake by the compounds of this invention. In the tables, column 1 gives the R substituent on the 3-phenylpropylamine and columns 2-4, the concentration in micrograms per ml. that blocks the uptake of a particular amine by 50 percent for the amines--norephinephrine, serotonin, and dopamine. At the head of each column is given the concentration of the particular monoamine used in the experiment.

[5] = system: dopamine uptake by synaptosomes from rat brain; experiment: In vitro blockade of dopamine uptake by synaptosomes from rat brain; assay type: biochemical; conditions: dopamine 0.2 μM
Description: as §1

[6] = system: serotonin uptake by synaptosomes from rat brain; experiment: In vitro blockade of serotonin uptake by synaptosomes from rat brain; assay type: biochemical; conditions: serotonin 0.1 μM
Description: as §1

[7] = system: response rates of pigeons; experiment: Operant behavior, fixed-ratio, fixed interval schedule; assay type: in vivo
Description: In manifesting their psychotropic action, the compounds of this invention also affect the behavior of animals trained in a variety of operant behavior schedules. Again, the activity of compounds of this invention in this type of test parallels that of known antidepressant drugs, particularly desmethylimipramine. […] With pigeons trained under an adjusting ratio schedule, the drugs of this invention affect behavior in the same way as does the marketed antidepressant, desmethylimipramine (DMI). […] The above results are consistent with antidepressant action.

[8] = Table 5, dimethylamino compounds, 1 mg./kg., Pre-30 min., mice
[9] = Table 5, dimethylamino compounds, 3 mg./kg., Pre-30 min., mice
[10] = Table 5, dimethylamino compounds, 10 mg./kg., Pre-30 min., mice
[11] = Table 5, dimethylamino compounds
[12] = Mus musculus, Table 5, dimethylamino compounds, 1 mg./kg., Pre-30 min., mice, read-out: Percent Antagonism Apomorphine
[13] = Mus musculus, Table 5, dimethylamino compounds, 3 mg./kg., Pre-30 min., mice, read-out: Percent Antagonism Apomorphine
[14] = Mus musculus, Table 5, dimethylamino compounds, 10 mg./kg., Pre-30 min., mice, read-out: Percent Antagonism Apomorphine

| SMILES | Concentration that blocks 50% of amine uptake, Norepinephrine ([4]; Table 1, scaffold drawing 3) | inhibition in vivo at 1 mg/kg [2, 11] | inhibition in vivo at 3 mg/kg [2, 11] | inhibition in vivo at 10 mg/kg [2, 11] | Concentration that blocks 50% of amine uptake, Dopamine ([5]; Table 1, scaffold drawing 3) | Concentration that blocks 50% of amine uptake, Serotonin ([6]; Table 1, scaffold drawing 3) | inhibition in vivo at 3 mg/kg [1, 13] | inhibition in vivo at 10 mg/kg [1, 14] | further results |
| --- | --- | --- | --- | --- | --- | --- | --- | --- | --- |
| CN(C)CCCN1c2ccccc2CCc2ccc(Cl)cc21 [chloroimipramine] | – | – | – | – | – | – | – | – | Brain serotonin level (brain serotonin): 0.45 ± .03 µg/g |
| CN(C)CCC=C1c2ccccc2CCc2ccccc21 [amitriptyline, reference compound] | – | – | – | – | – | – | – | – | Reduction of apomorphine hypothermia [1]: 100%; Activity in antagonism of apomorphine hypothermia ([1]; in words): active; Activity in reversal of reserpine hypothermia ([2]; in words): active; Effect on the electrocardiogram (widening of the QRS complex) [3]: causes a widening of the QRS complex of the electrocardiogram |
| CNCCC(Oc1ccc(C(F)(F)F)cc1)c1ccccc1 (stereo not shown) [p-trifluoromethylphenyl, N-methyl 3-(p-trifluoromethylphenoxy)-3-phenylpropylamine] | – | – | – | – | – | – | – | – | Brain serotonin level (brain serotonin): 0.69 ± .02 µg/g |
| CC(C)c1ccccc1OC(CCN(C)C)c1ccccc1 (stereo not shown) [o-isopropylphenyl, oxalate] | 1.5 mcq./ml. | 20% | 28% | 35% | > 100 mcq./ml. | > 100 mcq./ml. | – | – | Percent Antagonism Apomorphine [1, 8]: 17%; Percent Antagonism Apomorphine [1, 9]: 39%; Percent Antagonism Apomorphine [1, 10]: 65%; Percent Antagonism Apomorphine ([1]; Table 5, dimethylamino compounds, .3 mg./kg., Pre-30 min., mice): 3%; inhibition in vivo at 0.3 mg/kg [2, 11]: 12% |
| COc1ccccc1OC(CCN)c1ccccc1 (stereo not shown) [3-(o-Methoxyphenoxy)-3-phenylpropylamine, 3-(o-methoxyphenoxy)-3-phenylpropylamine] | – | – | – | – | – | – | – | – | Effect on the electrocardiogram (widening of the QRS complex) [3]: affects the electrocardiogram similarly, but at far higher doses |
| CNCCC(Oc1cccc(OC)c1)c1ccccc1.O=C(O)C(=O)O (stereo not shown) [m-anisyl, N-methyl 3-phenyl-3-(m-methoxyphenoxy)propylamine oxalate] | – | -1% | 6% | 5% | – | – | -7% | -5% | inhibition in vivo at 1 mg/kg ([1]; Mus musculus, Table 4, secondary amines, 1 mg./kg., Pre-30 min., mice, read-out: Percent Antagonism Apomorphine): 15%; inhibition in vivo at 3 mg/kg ([1]; Mus musculus, Table 4, secondary amines, 3 mg./kg., Pre-30 min., mice, read-out: Percent Antagonism Apomorphine): 71%; inhibition in vivo at 0.3 mg/kg ([1]; Mus musculus, Table 4, secondary amines, .3 mg./kg., Pre-30 min., mice, read-out: Percent Antagonism Apomorphine): 15%; inhibition in vivo at 1 mg/kg [1, 12]: -12%; Concentration that blocks 50% of amine uptake, Norepinephrine ([4]; Table 2, scaffold drawing 4): .15 µg/mL; inhibition in vivo at 1 mg/kg ([2]; Table 4, secondary amines): 21%; inhibition in vivo at 3 mg/kg ([2]; Table 4, secondary amines): 21%; inhibition in vivo at 0.3 mg/kg ([2]; Table 4, secondary amines): 8%; Concentration that blocks 50% of amine uptake, Dopamine ([5]; Table 2, scaffold drawing 4): .45 µg/mL; Concentration that blocks 50% of amine uptake, Serotonin ([6]; Table 2, scaffold drawing 4): 4.5 µg/mL |
| CN(C)CCC(Oc1ccc(F)cc1F)c1ccccc1 (stereo not shown) [2,4-difluorophenyl] | .2 mcq./ml. | 11% | 12% | 30% | 10 mcq./ml. | .3 mcq./ml. | – | – | Percent Antagonism Apomorphine ([1]; Table 4, secondary amines, 1 mg./kg., Pre-30 min., mice): 53%; Percent Antagonism Apomorphine ([1]; Table 4, secondary amines, 3 mg./kg., Pre-30 min., mice): 64%; Percent Antagonism Apomorphine ([1]; Table 4, secondary amines, .3 mg./kg., Pre-30 min., mice): 20%; Percent Antagonism Apomorphine [1, 8]: 26%; Percent Antagonism Apomorphine [1, 9]: 55%; Percent Antagonism Apomorphine [1, 10]: 98%; Concentration that blocks 50% of amine uptake, Norepinephrine ([4]; Table 2, scaffold drawing 4): > 100 µg/mL; inhibition in vivo at 1 mg/kg ([2]; Table 4, secondary amines): 17%; inhibition in vivo at 3 mg/kg ([2]; Table 4, secondary amines): 27%; inhibition in vivo at 0.3 mg/kg ([2]; Table 4, secondary amines): 13%; inhibition in vivo at 0.3 mg/kg [2, 11]: 23%; Concentration that blocks 50% of amine uptake, Dopamine ([5]; Table 2, scaffold drawing 4): > 100 µg/mL; Concentration that blocks 50% of amine uptake, Serotonin ([6]; Table 2, scaffold drawing 4): 4.5 µg/mL |
| CN(C)CCC(Oc1ccccc1Cl)c1ccccc1.O=C(O)/C=C\C(=O)O (stereo not shown) [o-chlorophenyl, N,N-dimethyl 3-(o-chlorophenoxy)-3-phenylpropylamine maleate] | .45 mcq./ml. | 3% | 4% | 25% | .2 mcq./ml. | .2 mcq./ml. | -17% | 57% | inhibition in vivo at 1 mg/kg [1, 12]: -10% |
| CN(C)CCC(Oc1cccc2ccccc12)c1ccccc1.O=C(O)/C=C\C(=O)O (stereo not drawn) [α-naphthyl, N,N-dimethyl 3-(α-naphthyloxy)-3-phenylpropylamine maleate] | 3 mcq./ml. | 15% | 4% | 15% | 2.5 mcq./ml. | .03 mcq./ml. | -10% | -7% | inhibition in vivo at 1 mg/kg [1, 12]: -17% |
| CNCCC(Oc1ccccc1OC)c1ccccc1.Cl (stereo not shown) [o-anisyl, N-methyl 3-(o-methoxyphenoxy)-3-phenylpropylamine hydrochloride] | – | – | – | – | – | – | – | – | Reduction of apomorphine hypothermia [1]: 100%; Persistence of the effect on response rates [7]: more than 24 hours |
| CCc1ccccc1OC(CCN(C)C)c1ccccc1.O=C(O)C(=O)O (stereo not shown) [o-ethylphenyl, N,N-dimethyl 3-(o-ethylphenoxy)-3-phenylpropylamine oxalate] | > 100 mcq./ml. | 17% | 13% | 35% | > 100 mcq./ml. | 3.5 mcq./ml. | 20% | 74% | – |
| CN(C)CCC(Oc1ccccc1)c1ccccc1 (stereo not shown) [phenyl] | 1 mcq./ml. | 20% | 20% | 49% | .3 mcq./ml. | .6 mcq./ml. | 3% | 54% | – |
